Assay results from patent US20240025903A1, “Bicyclic Compounds and Uses Thereof for the Treatment of Diseases” (Athira Pharma, Inc., priority 2020, published 2024).

Legend:
[1] = molecular target: T1, HGF/MET system (Homo sapiens, UniProt P08581+P14210); experiment: Phospho-MET ELISA; type: cell-based; design: key: − indicates that the compound failed to significantly augment MET phosphorylation; + indicates maximum potency at or above 100 nM; ++ indicates maximum potency at or above 10 nM; +++ indicates maximum potency at or above 1 nM; ++++ indicates maximum potency at or above 0.1 nM; conditions: HEK293 cells, 1 ng/mL recombinant HGF, 15 minutes, pMET ELISA
T1 construct: HEK293 cells were prepared by passage into 6-well multi-plates; endogenous in cells; host or cells: HEK293
Procedure: Compounds were screened for potency towards the HGF/MET system using phospho-MET (pMET) ELISA kits (Cell Signaling). pMET levels were detected in samples having low (1 ng/mL) and high (10 ng/mL) concentrations of HGF.
HEK293 cells were prepared by passage into 6-well multi-plates and grown at 37° C. at 5% CO2 in DMEM+10% FBS until approximately 90% confluent. Cells were then starved for at least 8 hours in serum-free growth media.
Exemplary compounds were prepared in DMEM+0.1% FBS, diluted and added to treatment media with 1 ng/mL recombinant HGF protein (R&D Systems). Cells were incubated in triplicate at 37° C. and 5% CO2 for 15 minutes. Samples were then treated with 180 μL ice-cold RIPA (radioimmunoprecipitation assay) buffer and cells were lysed on ice for 15 minutes. Lysates were cleared by centrifugation at 16,000-g for 15 minutes and the supernatant was retained. Samples were normalized using a BCA assay of lysates to determine protein concentrations across the samples.
Between 50 and 100 μg total protein lysate was loaded into ELISA wells in pMET Sandwich ELISA kit (Cell Signaling Catalog #7227C), ensuring equal protein load in each well. The ELISA was processed according to manufacturer's instructions. After color developed, absorbance was read on an optical plate reader at 450 nm.
Potency measurements were determined using peak efficacy by scaling test compound dose treatments along a scale of 1-10 between 1 ng/mL and 10 ng/mL HGF doses according to the following formula: […]
where y is the normalized data-point, x is the raw data point, A is the mean HGF at 1 ng/mL, and B is the mean HGF at 10 ng/mL.

[2] = Turbidimetric solubility assay; type: physicochemical; conditions: aqueous buffer, kinetic from dmso stock, PBS, 37° C., absorbance 620 nm
Procedure: Aqueous solubility is a critical drug property that helps to predict bioavailability. Generally, compounds with aqueous solubility <100 μg/ml are poor drugs.
To assess a compound's solubility by turbidity, test compounds were first dissolved in organic solvent (DMSO) at a concentration of 10 mM. This compound solution was then diluted in aqueous solvent (PBS) in a dilution series from […] in a 96-well assay plate. Solutions were incubated at 37° C. for 2 hours.
In wells with test compounds over their solubility limit, the compound will precipitate, effectively blocking the passage of light and thus increasing the absorbance signal of UV light at a wavelength of 620 nm. Compounds were considered insoluble at a tested concentration if turbidity raises the absorbance more than 10% above control reads.

[3] = system: MDCK cells; experiment: Cell scattering behavior assay; type: cell-based; design: key: − indicates that the compound failed to significantly promote cell scattering behavior; + indicates maximum potency at or above 100 nM; ++ indicates maximum potency at or above 10 nM; +++ indicates maximum potency at or above 1 nM; ++++ indicates maximum potency at or above 0.1 nM; conditions: 5 ng/mL HGF, 24 hours, normalized particle count vs HGF alone
Procedure: MDCK cells were grown under normal conditions and observed to spontaneously form tight colonies as they proliferate. MDCK cells respond to HGF treatment by moving away from each other (scattering), which is quantified to assess the amount of HGF/MET activation in the cell population. In this experiment, MDCK cells were plated in a 96-well format, treated with HGF and exemplary compounds, fluorescently stained, imaged in large fields, and scattering behavior was quantified. Quantification was determined by analyzing the number of continuous groups of cells compared to the total stained area imaged (normalized particle counts).
MDCK cells were plated at low density in black-walled imaging plates and allowed to attach overnight at 37° C. and 5% CO2 in DMEM+10% FBS. Cells were then starved to 2 hours in DMEM without FBS (“starve media”). Samples containing exemplary compounds were prepared in DMEM without FBS and included 5 ng/mL HGF protein (“treatment media”). A control curve was also prepared for each plate using HGF concentrations of 0, 5, 10, and 20 ng/mL. Starve media was replaced with treatment media and cells were incubated for 24 hours at 37° C. and 5% CO2.
After incubation, cells were fixed by replacing treatment media with cold ethanol and incubating for 20 minutes at 4° C. Cells were then rehydrated by washing with PBS and then with stain solution (fluorescent wheat germ agglutinin; WGA488 at 20 μg/mL in PBS). Cells were incubated with stain solution 30 minutes at room temperature after which stain solution was replaced with fresh PBS.
Fields of cells were imaged using an iCyte high content imager in the green wavelength. Images were converted to binary and analyzed for particle size and particle count. For the purpose of analysis, an individual cell touching no other cells or separated colonies of cells were identified as particles, and particle counts were normalized by the total signal area to account for differences in cell number. […] Compound potency was assessed by statistical increase in normalized particle count compared to HGF treatment alone.

T1 sequence (P08581 308-1390 limits assumed): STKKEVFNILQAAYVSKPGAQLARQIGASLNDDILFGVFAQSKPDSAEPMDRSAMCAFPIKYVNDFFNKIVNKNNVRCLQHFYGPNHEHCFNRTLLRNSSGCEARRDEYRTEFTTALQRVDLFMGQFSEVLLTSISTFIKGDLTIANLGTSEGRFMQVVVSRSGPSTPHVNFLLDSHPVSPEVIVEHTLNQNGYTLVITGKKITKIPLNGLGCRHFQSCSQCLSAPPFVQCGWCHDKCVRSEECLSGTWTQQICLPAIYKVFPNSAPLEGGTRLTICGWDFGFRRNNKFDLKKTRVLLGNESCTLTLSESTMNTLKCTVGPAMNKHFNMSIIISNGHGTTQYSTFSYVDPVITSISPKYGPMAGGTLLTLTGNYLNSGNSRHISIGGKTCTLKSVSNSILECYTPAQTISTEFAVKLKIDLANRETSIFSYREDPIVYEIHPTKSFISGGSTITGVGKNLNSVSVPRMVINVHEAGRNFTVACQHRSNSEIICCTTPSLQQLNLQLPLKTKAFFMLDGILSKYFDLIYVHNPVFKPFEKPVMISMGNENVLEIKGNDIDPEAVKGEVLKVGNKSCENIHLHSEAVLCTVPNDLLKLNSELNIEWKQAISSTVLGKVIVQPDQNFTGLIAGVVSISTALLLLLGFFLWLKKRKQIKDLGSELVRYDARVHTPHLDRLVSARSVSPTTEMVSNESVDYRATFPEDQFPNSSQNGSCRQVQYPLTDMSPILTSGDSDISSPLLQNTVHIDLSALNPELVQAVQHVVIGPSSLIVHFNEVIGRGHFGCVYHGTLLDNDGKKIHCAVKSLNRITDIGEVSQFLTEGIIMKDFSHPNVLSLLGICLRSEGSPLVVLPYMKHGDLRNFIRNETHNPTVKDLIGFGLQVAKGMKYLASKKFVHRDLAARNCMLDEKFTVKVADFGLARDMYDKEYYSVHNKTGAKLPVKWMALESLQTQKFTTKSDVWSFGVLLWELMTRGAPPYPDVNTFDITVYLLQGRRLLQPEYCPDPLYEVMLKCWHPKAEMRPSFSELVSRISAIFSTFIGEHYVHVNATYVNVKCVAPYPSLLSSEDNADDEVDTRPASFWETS
T1 sequence (P14210 32-494 limits assumed): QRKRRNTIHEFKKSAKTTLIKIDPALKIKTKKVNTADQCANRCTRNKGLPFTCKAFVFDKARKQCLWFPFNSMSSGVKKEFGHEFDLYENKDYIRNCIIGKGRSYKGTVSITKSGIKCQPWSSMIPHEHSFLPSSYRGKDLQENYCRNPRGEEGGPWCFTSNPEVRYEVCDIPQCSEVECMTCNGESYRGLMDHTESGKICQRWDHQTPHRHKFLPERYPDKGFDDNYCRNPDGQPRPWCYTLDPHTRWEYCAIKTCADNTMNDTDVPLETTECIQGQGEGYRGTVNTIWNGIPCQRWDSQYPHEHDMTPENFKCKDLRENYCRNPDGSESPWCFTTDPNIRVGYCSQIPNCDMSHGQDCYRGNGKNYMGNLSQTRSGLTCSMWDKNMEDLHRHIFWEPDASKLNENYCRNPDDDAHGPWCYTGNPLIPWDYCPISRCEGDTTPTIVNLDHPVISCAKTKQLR

Potency (augmentation of MET phosphorylation) [1] | solubility at 2 h [2] [µM] | SMILES | Potency (cell scattering) [3]
− | > 300 | C=CCCN1CC2N(Cc3ccc(OC(F)F)cc3)CCC(=O)N2C(C)C1=O (centres unmarked) [Compound 39] | −
− | > 300 | CC1C(=O)N(CC2CCC2)CC2N(C(=O)c3ccc(C(F)(F)F)cc3)CCC(=O)N12 (centres unmarked) [Compound 16] | −
− | > 300 | CC1C(=O)N(CCC2CCCC2)CC2N(Cc3ccc(F)cc3)CCC(=O)N12 (centres unmarked) [Compound 46, 8-(2-cyclopentylethyl)-1-(4-fluorobenzyl)-6-methylhexahydro-4H-pyrazino[1,2-c]pyrimidine-4,7(6H)-dione] | −
− | > 100 | CCC(C)CN1CC2N(Cc3ccc(C(F)(F)F)c(Cl)c3)CCC(=O)N2C(C)C1=O (centres unmarked) [Compound 43] | −
− | > 100 | CCC(C)CN1CC2N(Cc3ccc(C(F)(F)F)cc3)CCC(=O)N2C(CF)C1=O (centres unmarked) [Compound 48, 6-(fluoromethyl)-8-(2-methylbutyl)-1-(4-(trifluoromethyl)benzyl)hexahydro-4H-pyrazino[1,2-a]pyrimidine-4,7(6H)-dione] | 
− | > 300 | CC1C(=O)N(CCC2CCC2)CC2N(Cc3ccc(OC(F)F)cc3)CCC(=O)N12 (centres unmarked) [Compound 40] | 
− | > 100 | CC1C(=O)N(CCC2CCCC2)CC2N(Cc3ccc(OC(F)F)cc3)CCC(=O)N12 (centres unmarked) [Compound 38] | 
− | > 300 | CC(C)CN1CC2N(C(=O)c3ccc(C(F)(F)F)cc3)CCC(=O)N2C(C)C1=O (centres unmarked) [Compound 23] | −
− | > 300 | C=CCCN1CC2N(C(=O)c3ccc(OC(F)F)cc3)CCC(=O)N2C(C)C1=O (centres unmarked) [Compound 18] | −
− | > 300 | CC1C(=O)N(CC2CCCC2)CC2N(C(=O)c3ccc(OC(F)F)cc3)CCC(=O)N12 (centres unmarked) [Compound 13] | −
− | > 300 | CC1C(=O)N(CCc2cccs2)CC2N(C(=O)c3ccc(OC(F)F)cc3)CCC(=O)N12 (centres unmarked) [Compound 26] | −
− | > 300 | CC1C(=O)N(CCO)CC2N(C(=O)c3ccc(OC(F)F)cc3)CCC(=O)N12 (centres unmarked) [Compound 34, 1-(4-(difluoromethoxy)benzoyl)-8-(2-hydroxyethyl)-6-methylhexahydro-4H-pyrazino[1,2-a]pyrimidine-4,7(6H)-dione] | −
− | > 300 | COCCCN1CC2N(C(=O)c3ccc(OC(F)F)cc3)CCC(=O)N2C(C)C1=O (centres unmarked) [Compound 33] | −
− | > 300 | CCC(C)CN1CC2N(Cc3ccc(OC(F)F)cc3)CCC(=O)N2C(CF)C1=O (centres unmarked) [Compound 47, 1-(4-(difluoromethoxy)benzyl)-6-(fluoromethyl)-8-(2-methylbutyl)hexahydro-4H-pyrazino[1,2-a]pyrimidine-4,7(6H)-dione] | 
− | > 100 | CCC(C)CN1CC2N(Cc3c[nH]c4ccccc34)CCC(=O)N2C(C)C1=O (centres unmarked) [Compound 44] | −
− | > 300 | CC1C(=O)N(CC2CCCC2)CC2N(C(=O)c3ccc(C(F)(F)F)cc3)CCC(=O)N12 (centres unmarked) [Compound 15] | −
− | > 300 | CC(C)N1CC2N(C(=O)c3ccc(C(F)(F)F)cc3)CCC(=O)N2C(C)C1=O (centres unmarked) [Compound 24] | −
− | > 100 | CC1C(=O)N(CCc2ccccc2)CC2N(C(=O)c3ccc(OC(F)F)cc3)CCC(=O)N12 (centres unmarked) [Compound 28] | −
− | > 300 | CC1C(=O)N(CCC2CC2)CC2N(C(=O)c3ccc(OC(F)F)cc3)CCC(=O)N12 (centres unmarked) [Compound 31] | −
− | > 300 | CCCCN1CC2N(Cc3ccc(OC(F)F)cc3)CCC(=O)N2C(C)C1=O (centres unmarked) [Compound 41] | −
− | > 300 | CC1C(=O)N(CCc2ccco2)CC2N(C(=O)c3ccc(OC(F)F)cc3)CCC(=O)N12 (centres unmarked) [Compound 25] | −
− | > 300 | COCCN1CC2N(C(=O)c3ccc(OC(F)F)cc3)CCC(=O)N2C(C)C1=O (centres unmarked) [Compound 32] | −
− | > 300 | CCC(C)CN1CC2N(Cc3ccc(OC(F)F)cc3)CCC(=O)N2C(CC(N)=O)C1=O (centres unmarked) [Compound 50, 2-(1-(4-(difluoromethoxy)benzyl)-8-(2-methylbutyl)-4,7-dioxooctahydro-2H-pyrazino[1,2-a]pyrimidin-6-yl)acetamide] | −
− | > 300 | CC1C(=O)N(CCC2CCC2)CC2N(Cc3ccc(F)cc3)CCC(=O)N12 (centres unmarked) [Compound 45, 8-(2-cyclobutylethyl)-1-(4-fluorobenzyl)-6-methylhexahydro-4H-pyrazino[1,2-a]pyrimidine-4,7(6H)-dione] | 
− | > 100 | CC1C(=O)N(CC2CCCO2)CC2N(C(=O)c3ccc(OC(F)F)cc3)CCC(=O)N12 (centres unmarked) [Compound 27] | 
− | > 300 | CC1C(=O)N(CCN)CC2N(C(=O)c3ccc(OC(F)F)cc3)CCC(=O)N12 (centres unmarked) [Compound 35, 8-(2-aminoethyl)-1-(4-(difluoromethoxy)benzoyl)-6-methylhexahydro-4H-pyrazino[1,2-a]pyrimidine-4,7(6H)-dione] | −
− | > 300 | CCCCN1CC2N(C(=O)c3ccc(C(F)(F)F)cc3)CCC(=O)N2C(C)C1=O (centres unmarked) [Compound 21] | −
− | > 300 | CC1C(=O)N(CCc2ccncc2)CC2N(C(=O)c3ccc(OC(F)F)cc3)CCC(=O)N12 (centres unmarked) [Compound 29] | 
